Assay results taken from patent US7902373B2 (Pfizer Inc, priority 2006, dated 2011).

Target: human recombinant H-PGDS (Homo sapiens, UniProt O60760)
Experiment: Fluorescence intensity h-PGDS TBA enzyme assay
Type: biochemical
Settings: Examples up to 622 (and 3a, 3b)

Sequence of human recombinant H-PGDS (O60760 whole entry): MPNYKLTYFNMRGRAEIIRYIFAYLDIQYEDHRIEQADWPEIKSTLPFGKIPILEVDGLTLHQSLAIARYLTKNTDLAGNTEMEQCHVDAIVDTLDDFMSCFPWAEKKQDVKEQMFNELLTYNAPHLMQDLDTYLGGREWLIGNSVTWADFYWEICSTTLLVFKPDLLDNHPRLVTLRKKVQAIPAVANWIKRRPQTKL

| IC50 | Compound |
| --- | --- |
| 1.24 nM | O=C(NC1CCN(Cc2ccc(OCCO)cc2)CC1)c1ccc(-c2cccc(F)c2)nc1 [Example 258, 6-(3-Fluorophenyl)-N-{1-[4-(2-hydroxyethoxy)benzyl]piperidin-4-yl}nicotinamide] |
| 1.68 nM | CS(=O)(=O)c1ccc(CN2CCC(NC(=O)c3ccc(-c4cccc(F)c4)nc3)CC2)cc1 [Example 259, 6-(3-Fluorophenyl)-N-{1-[4-(methylsulfonyl)benzyl]piperidin-4-yl}nicotinamide] |
| 1.48 nM | O=C(NC1CCN(Cc2cc3ccccc3nn2)CC1)c1ccc(-c2cccc(F)c2)nc1 [Example 261, N-[1-(Cinnolin-3-ylmethyl)piperidin-4-yl]-6-(3-fluorophenyl)nicotinamide] |
| 4.29 nM | COC(=O)c1ccc2c(CN3CCC(NC(=O)c4ccc(-c5cccc(F)c5)nc4)CC3)c[nH]c2c1 [Example 265, Methyl 3-{[4-({[6-(3-fluorophenyl)pyridin-3-yl]carbonyl}amino)piperidin-1-yl]methyl}-1H-indole-6-carboxylate] |
| 8.08 nM | CC(C)(CN1CCC(NC(=O)c2ccc(-c3cccc(F)c3)nc2)CC1)NC(=O)OC(C)(C)C [Example 268, tert-Butyl {2-[4-({[6-(3-fluorophenyl)pyridin-3-yl]carbonyl}amino)piperidin-1-yl]-1,1-dimethylethyl}carbamate] |
| 3.5 nM | CN(CCCN1CCC(NC(=O)c2ccc(-c3cccc(F)c3)nc2)CC1)C(=O)OC(C)(C)C [Example 269, tert-Butyl {3-[4-({[6-(3-fluorophenyl)pyridin-3-yl]carbonyl}amino)piperidin-1-yl]propyl}methylcarbamate] |
| 5.62 nM | CCN(CC)C(=O)c1ccc(CN2CCC(NC(=O)c3ccc(-c4cccc(F)c4)nc3)CC2)cc1 [Example 271, N-(1-{4-[(Diethylamino)carbonyl]benzyl}piperidin-4-yl)-6-(3-fluorophenyl)nicotinamide] |
| 0.816 nM | O=C(NC1CCN(Cc2ccc[nH]c2=O)CC1)c1ccc(-c2cccc(F)c2)nc1 [Example 272, 6-(3-Fluorophenyl)-N-{1-[(2-oxo-1,2-dihydropyridin-3-yl)methyl]piperidin-4-yl}nicotinamide] |

Further lines, the compound ahead of its results:

| Compound | IC50 |
| --- | --- |
| COc1ccc(CN2CCC(NC(=O)c3ccc(-c4cccc(F)c4)nc3)CC2)c(Cl)c1OC [Example 260, N-[1-(2-Chloro-3,4-dimethoxybenzyl)piperidin-4-yl]-6-(3-fluorophenyl)nicotinamide] | 0.578 nM |
| Cc1nc2ccccc2nc1CN1CCC(NC(=O)c2ccc(-c3cccc(F)c3)nc2)CC1 [Example 262, 6-(3-Fluorophenyl)-N-{1-[(3-methylquinoxalin-2-yl)methyl]piperidin-4-yl}nicotinamide] | 3.86 nM |
| O=C(NC1CCN(Cc2cnc3ccccc3n2)CC1)c1ccc(-c2cccc(F)c2)nc1 [Example 263, 6-(3-Fluorophenyl)-N-[1-(quinoxalin-2-ylmethyl)piperidin-4-yl]nicotinamide] | 1.16 nM |
| Cn1cc(CN2CCC(NC(=O)c3ccc(-c4cccc(F)c4)nc3)CC2)c(=O)n(C)c1=O [Example 264, N-{1-[(1,3-Dimethyl-2,4-dioxo-1,2,3,4-tetrahydropyrimidin-5-yl)methyl]piperidin-4-yl}-6-(3-fluorophenyl)nicotinamide] | 2 nM |
| Cc1nc(CN2CCC(NC(=O)c3ccc(-c4cccc(F)c4)nc3)CC2)c[nH]1 [Example 266, 6-(3-Fluorophenyl)-N-{1-[(2-methyl-1H-imidazol-4-yl)methyl]piperidin-4-yl}nicotinamide] | 2.15 nM |
| O=C(NC1CCN(Cc2cc(Cl)c(O)c(Cl)c2)CC1)c1ccc(-c2cccc(F)c2)nc1 [Example 267, N-[1-(3,5-Dichloro-4-hydroxybenzyl)piperidin-4-yl]-6-(3-fluorophenyl)nicotinamide] | 0.994 nM |
| Cc1c(CN2CCC(NC(=O)c3ccc(-c4cccc(F)c4)nc3)CC2)c(=O)n(C)c(=O)n1C [Example 270, 6-(3-Fluorophenyl)-N-{1-[(1,3,6-trimethyl-2,4-dioxo-1,2,3,4-tetrahydropyrimidin-5-yl)methyl]piperidin-4-yl}nicotinamide] | 0.507 nM |
